The NIST ThermoML archive (doi:10.1016/j.jct.2018.02.022)

Experiment: xn = mol fraction of the nth substance listed
Conditions: 92.3 kPa, Liquid; for viscosity: Concentric cylinders viscometry; for speed of sound: Frequency=3 MHz, Single path-length method; for mass density: Vibrating tube method

OCCOCCOCCO [triethylene glycol] + O
Conditions | mass density, 303.15 K [kg/m3] | mass density, 308.15 K [kg/m3] | speed of sound, 303.15 K [m/s] | speed of sound, 308.15 K [m/s] | viscosity, 303.15 K [mPa·s] | viscosity, 308.15 K [mPa·s]
x1 = 0.0101 | 1006.7 | 1005.03 | 1546.6 | 1554.2 | – | –
x1 = 0.0196 | 1016.05 | 1014.27 | 1577.2 | 1582.2 | – | –
x1 = 0.025 | 1021.12 | 1019.05 | – | – | 1.425 | 1.265
x1 = 0.029 | 1025.03 | 1022.86 | 1604.2 | 1606.8 | – | –
x1 = 0.0381 | 1032.5 | 1030.16 | 1626.5 | 1627 | – | –
x1 = 0.0489 | 1040.16 | 1037.64 | – | – | 2.135 | 1.865
x1 = 0.0496 | 1041.07 | 1038.52 | 1650.4 | 1648.6 | – | –
x1 = 0.0601 | 1048.1 | 1045.38 | 1668.4 | 1664.8 | – | –
x1 = 0.0689 | 1053.32 | 1050.48 | 1680.7 | 1675.8 | – | –
x1 = 0.0754 | 1056.69 | 1053.78 | – | – | 3.109 | 2.68
x1 = 0.0801 | 1059.3 | 1056.32 | 1693.4 | 1687 | – | –
x1 = 0.0905 | 1064.27 | 1061.17 | 1702.5 | 1695 | – | –
x1 = 0.0993 | 1068.24 | 1065.07 | – | – | 4.145 | 3.561
x1 = 0.0996 | 1068.21 | 1065.01 | 1708.8 | 1700.4 | – | –
x1 = 0.1479 | 1083.73 | 1080.2 | 1722.1 | 1710.8 | – | –
x1 = 0.15 | 1085.03 | 1081.49 | – | – | 6.732 | 5.617
x1 = 0.1993 | 1094.5 | 1090.78 | – | – | 9.456 | 7.962
x1 = 0.2004 | 1093.95 | 1090.24 | 1716.5 | 1703.7 | – | –
x1 = 0.2462 | 1099.63 | 1095.85 | 1705.3 | 1691.9 | – | –
x1 = 0.2526 | 1100.4 | 1096.6 | – | – | 12.39 | 10.33
x1 = 0.2998 | 1103.65 | 1099.82 | – | – | 14.86 | 12.25
x1 = 0.3004 | 1103.99 | 1100.16 | 1690.6 | 1676.8 | – | –
x1 = 0.3474 | 1106.59 | 1102.74 | 1678.1 | 1664.2 | – | –
x1 = 0.3539 | 1106.3 | 1102.46 | – | – | 17.36 | 14.19
x1 = 0.3948 | 1108.5 | 1104.64 | 1666.6 | 1652.5 | – | –
x1 = 0.4009 | 1108.18 | 1104.33 | – | – | 19.33 | 15.72
x1 = 0.4467 | 1110.04 | 1106.18 | 1655.4 | 1641.2 | – | –
x1 = 0.4492 | 1109.87 | 1106.02 | – | – | 21.06 | 17.03
x1 = 0.4992 | 1111.36 | 1107.51 | – | – | 22.58 | 18.22
x1 = 0.5021 | 1111.28 | 1107.42 | 1644.9 | 1630.7 | – | –
x1 = 0.548 | 1112.08 | 1108.22 | 1637.5 | 1623.2 | – | –
x1 = 0.5484 | 1112.51 | 1108.65 | – | – | 23.9 | 19.23
x1 = 0.5923 | 1112.73 | 1108.87 | 1631 | 1616.6 | – | –
x1 = 0.5996 | 1113.32 | 1109.45 | – | – | 24.96 | 20.07
x1 = 0.6442 | 1113.33 | 1109.46 | 1624.5 | 1610.1 | – | –
x1 = 0.6506 | 1113.74 | 1109.87 | – | – | 25.86 | 20.77
x1 = 0.701 | 1113.89 | 1110.02 | – | – | 26.76 | 21.48
x1 = 0.7095 | 1113.94 | 1110.08 | 1617.7 | 1603.2 | – | –
x1 = 0.7531 | 1114.3 | 1110.43 | 1613.4 | 1598.8 | – | –
x1 = 0.7567 | 1113.98 | 1110.11 | – | – | 27.55 | 22.1
x1 = 0.7859 | 1114.55 | 1110.68 | 1610.5 | 1595.9 | – | –
x1 = 0.8035 | 1114.18 | 1110.31 | – | – | 28.08 | 22.51
x1 = 0.8387 | 1114.87 | 1111 | 1606.6 | 1591.9 | – | –
x1 = 0.8406 | 1114.51 | 1110.64 | – | – | 28.48 | 22.83
x1 = 0.8981 | 1115.27 | 1111.39 | – | – | 28.88 | 23.14
x1 = 0.9031 | 1115.25 | 1111.37 | 1602 | 1587.2 | – | –
x1 = 0.9181 | 1115.31 | 1111.42 | 1601.3 | 1586.5 | – | –
x1 = 0.9344 | 1115.4 | 1111.52 | 1600.4 | 1585.5 | – | –
x1 = 0.9489 | 1115.8 | 1111.91 | – | – | 29.26 | 23.46
x1 = 0.9569 | 1115.5 | 1111.62 | 1599 | 1584.2 | – | –
x1 = 0.9782 | 1115.59 | 1111.71 | 1597.9 | 1583 | – | –
x1 = 1 | 1115.7 | 1111.81 | 1596.6 | 1581.7 | 29.59 | 23.72
